Where two headings read alike, the source gives them in different places.
Key:
Assay in all cases: Post-emergence action, greenhouse pot test, visual scoring
Format in all cases: in vivo
Viola tricolor (VIOTR) = conditions: read-out: % activity found; for inhibition at 10 g/ha / inhibition at 30 g/ha: VIOTR; for inhibition at 10 g/ha: 10 g of ai/ha; for inhibition at 30 g/ha: 30 g of ai/ha
Protocol: (§1) Seeds or rhizome pieces of mono- and dicotyledonous harmful and useful plants were placed in peat pots (diameter 4 cm) filled with sandy loam and then covered with soil. The pots were kept in a greenhouse under optimum conditions. In addition, harmful plants encountered in paddy rice cultivation were cultivated in pots with a water level 2 cm above the soil surface.
(§2) About three weeks after the start of the cultivation, the test plants were treated at the 2- to 3-leaf stage. The herbicides, formulated as powder or liquid concentrates, were, either alone or in the combinations according to the invention, sprayed in various dosages on to the green parts of the plants using an application rate of 600 l of water/ha (converted). For further cultivation of the plants, the pots were then again kept under optimum conditions in a greenhouse.
(§3) The visual scoring of the herbicidal effects was carried out in intervals up to 21 days after the treatment. Scoring was carried out in percent in comparison to the untreated control plants. 0%=no herbicidal activity, 100%=complete herbicidal activity=complete kill.
(§4) The percentages from the treatments with the herbicides alone (=individual application) and with the combinations according to the invention (=mixtures) were employed to calculate interactions using the method of Colby. When the observed efficacies of the mixtures exceed the formal sum of the values of the tests with individual applications, they also exceed the expected value according to Colby, which is calculated using the formula below (cf. S. R. Colby; in Weeds 15 (1967) pp. 20 to 22):
(§5) • A, B=activity of components A and B in percent at a dosage of a and b g of ai/ha (=gramm of active substance per hectare), respectively. • E=expected value in % at a dosage of a+b g of ai/ha.

[1] = tested on: Triticum aestivum (TRZAS); conditions: read-out: % activity found; for inhibition at 30 g/ha: 30 g of ai/ha
Protocol: as §1, §2, §3, §4, §5

Zea mays (ZEAMX) = conditions: read-out: % activity found; for inhibition at 10 g/ha: 10 g of ai/ha
Protocol: as §1, §2, §3, §4, §5

Avena fatua (AVEFA) = conditions: read-out: % activity found
Protocol: as §1, §2, §3, §4, §5

[2] = tested on: Cyperus esculentus (CYPES); conditions: for (7) % activity found: CYPES, 21 DAT
Protocol: as §1, §2, §3, §4, §5

[3] = tested on: Alopecurus myosuroides (ALOMY); conditions: 504 h, read-out: % activity found
Protocol: as §1, §2, §3, §4, §5

Oryza sativa (ORYSA) = conditions: read-out: % activity found
Protocol: as §1, §2, §3, §4, §5

[4] = tested on: Lolium multiflorum (LOLMU); conditions: read-out: % activity found; for inhibition at 30 g/ha: 30 g of ai/ha; for inhibition at 10 g/ha: 10 g of ai/ha
Protocol: as §1, §2, §3, §4, §5

[5] = tested on: Matricaria inodora (MATIN); conditions: Tripleurospermum inodorum, read-out: % activity found; for inhibition at 30 g/ha / inhibition at 10 g/ha: MATIN; for inhibition at 30 g/ha: 30 g of ai/ha; for inhibition at 10 g/ha: 10 g of ai/ha
Protocol: as §1, §2, §3, §4, §5

Veronica persica (VERPE) = conditions: read-out: % activity found; for inhibition at 10 g/ha: 10 g of ai/ha
Protocol: as §1, §2, §3, §4, §5

[6] = tested on: Fallopia (ex Polygonum) convolvulus (POLCO); conditions: read-out: % activity found
Protocol: as §1, §2, §3, §4, §5

[7] = tested on: Abuthilon theophrasti (ABUTH); conditions: Abutilon theophrasti, read-out: % activity found; for inhibition at 10 g/ha / inhibition at 30 g/ha: ABUTH; for inhibition at 10 g/ha: 10 g of ai/ha; for inhibition at 30 g/ha: 30 g of ai/ha
Protocol: as §1, §2, §3, §4, §5

[8] = tested on: Amaranthus retroflexus (AMARE); conditions: read-out: % activity found; for inhibition at 10 g/ha / inhibition at 30 g/ha: AMARE; for inhibition at 10 g/ha: 10 g of ai/ha; for inhibition at 30 g/ha: 30 g of ai/ha
Protocol: as §1, §2, §3, §4, §5

[9] = tested on: Pharbitis purpurea (PHBPU); conditions: Ipomoea purpurea, read-out: % activity found; for inhibition at 10 g/ha / inhibition at 30 g/ha: PHBPU; for inhibition at 10 g/ha: 10 g of ai/ha; for inhibition at 30 g/ha: 30 g of ai/ha
Protocol: as §1, §2, §3, §4, §5

[10] = Cyperus esculentus, 504 h, read-out: % activity found

O=C(O)COc1ccc(Cl)cc1Cl [B5-2, (2,4-dichlorophenoxy)acetic acid]
60%: inhibition at 210 g/ha (Viola tricolor (VIOTR); 504 h)
0%: inhibition at 210 g/ha ([1]; 240 h) | inhibition at 70 g/ha (Zea mays (ZEAMX); 240 h) | inhibition at 70 g/ha (Zea mays (ZEAMX); 504 h) | inhibition at 70 g/ha (Avena fatua (AVEFA); 504 h) | inhibition at 210 g/ha (Avena fatua (AVEFA); 504 h) | inhibition at 70 g/ha [2, 10] | inhibition at 70 g/ha [3] | inhibition at 210 g/ha [3]
40%: inhibition at 210 g/ha (Zea mays (ZEAMX); 240 h)

CCOC(=O)C(C)OC(=O)c1cc(Oc2ccc(C(F)(F)F)cc2Cl)ccc1[N+](=O)[O-] (racemic) [B1-5, (±)-2-ethoxy-1-methyl-2-oxoethyl 5-[2-chloro-4-(trifluoromethyl)phenoxy]-2-nitrobenzoate]
80%: inhibition at 30 g/ha ([5]; 504 h, 21 DAT)
20%: inhibition at 30 g/ha ([4]; 504 h, 21 DAT) | inhibition at 30 g/ha ([1]; 504 h, TRZAS, 21 DAT)
40%: inhibition at 30 g/ha (Oryza sativa (ORYSA); 240 h, ORYSA, 10 DAT, 30 g of ai/ha)

C[C@@H](Oc1ccc(Oc2nc3ccc(Cl)cc3o2)cc1)C(=O)O [B7-4, (R)-2-[4-(6-chlorobenzoxazol-2-yloxy)phenoxy]propionic acid]
30%: inhibition at 10 g/ha (Zea mays (ZEAMX); 240 h, ZEAMX, 10 DAT) | inhibition at 10 g/ha ([3]; ALOMY, 21 DAT, 10 g of ai/ha) | inhibition at 30 g/ha ([3]; ALOMY, 21 DAT, 30 g of ai/ha)
0%: inhibition at 10 g/ha (Veronica persica (VERPE); 240 h, VERPE, 10 DAT) | inhibition at 10 g/ha (Veronica persica (VERPE); 504 h, VERPE, 21 DAT) | inhibition at 30 g/ha (Veronica persica (VERPE); 504 h, VERPE, 21 DAT, 30 g of ai/ha) | inhibition at 10 g/ha (Viola tricolor (VIOTR); 240 h, 10 DAT) | inhibition at 30 g/ha (Viola tricolor (VIOTR); 240 h, 10 DAT) | inhibition at 10 g/ha (Viola tricolor (VIOTR); 504 h, 21 DAT) | inhibition at 30 g/ha (Viola tricolor (VIOTR); 504 h, 21 DAT) | inhibition at 10 g/ha ([6]; 504 h, POLCO, 21 DAT, 10 g of ai/ha) | inhibition at 30 g/ha ([6]; 504 h, POLCO, 21 DAT, 30 g of ai/ha) | inhibition at 10 g/ha ([4]; 504 h, 21 DAT) | inhibition at 30 g/ha ([4]; 504 h, 21 DAT) | inhibition at 10 g/ha ([7]; 240 h, 10 DAT) | inhibition at 30 g/ha ([7]; 240 h, 10 DAT) | inhibition at 10 g/ha ([7]; 504 h, 21 DAT) | inhibition at 30 g/ha ([7]; 504 h, 21 DAT) | inhibition at 10 g/ha ([1]; 240 h, TRZAS, 10 DAT, 10 g of ai/ha) | inhibition at 30 g/ha ([1]; 240 h, TRZAS, 10 DAT) | inhibition at 10 g/ha ([5]; 240 h, 10 DAT) | inhibition at 30 g/ha ([5]; 240 h, 10 DAT) | inhibition at 10 g/ha ([5]; 504 h, 21 DAT) | inhibition at 30 g/ha ([5]; 504 h, 21 DAT) | inhibition at 10 g/ha (Avena fatua (AVEFA); 240 h, AVEFA, 10 DAT, 10 g of ai/ha) | inhibition at 30 g/ha (Avena fatua (AVEFA); 504 h, AVEFA, 21 DAT, 30 g of ai/ha) | inhibition at 10 g/ha ([8]; 240 h, 10 DAT) | inhibition at 30 g/ha ([8]; 240 h, 10 DAT) | inhibition at 10 g/ha ([8]; 504 h, 21 DAT) | inhibition at 30 g/ha ([8]; 504 h, 21 DAT) | (7) % activity found ([2]; (6) dose of B7-4 10, alone) | (7) % activity found ([2]; (6) dose of B7-4 30, alone) | inhibition at 10 g/ha ([9]; 240 h, 10 DAT) | inhibition at 30 g/ha ([9]; 240 h, 10 DAT) | inhibition at 10 g/ha ([9]; 504 h, 21 DAT) | inhibition at 30 g/ha ([9]; 504 h, 21 DAT)
20%: inhibition at 10 g/ha ([4]; 240 h, 10 DAT) | inhibition at 10 g/ha (Zea mays (ZEAMX); 504 h, ZEAMX, 21 DAT)
70%: inhibition at 30 g/ha (Zea mays (ZEAMX); 240 h, ZEAMX, 10 DAT, 30 g of ai/ha)

C[C@@H](Oc1ccc(Oc2ccc(C#N)cc2F)cc1)C(=O)O [B7-2, (2R)-2-[4-(4-cyano-2-fluorophenoxy)phenoxy]propanoic acid]
10%: inhibition at 25 g/ha (Oryza sativa (ORYSA); 504 h)
0%: inhibition at 75 g/ha (Veronica persica (VERPE); 240 h) | inhibition at 25 g/ha (Veronica persica (VERPE); 504 h) | inhibition at 75 g/ha (Veronica persica (VERPE); 504 h) | inhibition at 75 g/ha (Viola tricolor (VIOTR); 240 h) | inhibition at 25 g/ha (Viola tricolor (VIOTR); 504 h) | inhibition at 75 g/ha (Viola tricolor (VIOTR); 504 h) | inhibition at 25 g/ha ([6]; 240 h) | inhibition at 75 g/ha ([6]; 240 h) | inhibition at 25 g/ha ([6]; 504 h) | inhibition at 75 g/ha ([6]; 504 h) | inhibition at 25 g/ha ([7]; 504 h) | inhibition at 75 g/ha ([7]; 504 h) | inhibition at 25 g/ha ([5]; 504 h) | inhibition at 75 g/ha ([5]; 504 h) | inhibition at 25 g/ha (Avena fatua (AVEFA); 504 h) | inhibition at 25 g/ha ([8]; 240 h) | inhibition at 25 g/ha ([8]; 504 h) | inhibition at 75 g/ha ([8]; 504 h) | inhibition at 25 g/ha [2, 10] | inhibition at 75 g/ha [2, 10] | inhibition at 25 g/ha [3] | inhibition at 25 g/ha ([9]; 240 h) | inhibition at 25 g/ha ([9]; 504 h) | inhibition at 75 g/ha ([9]; 504 h)
70%: inhibition at 25 g/ha (Zea mays (ZEAMX); 240 h) | inhibition at 25 g/ha (Zea mays (ZEAMX); 504 h)
20%: inhibition at 75 g/ha (Oryza sativa (ORYSA); 504 h) | inhibition at 75 g/ha [3] | inhibition at 75 g/ha ([9]; 240 h)
